From PubChem BioAssay AID806 (SRMLSC, 2007)
Active and inactive are the calls of the source. How the calls were made is not given here.

Test system: virus-infected cells, CPE inhibition, dose response
Test: PubChem AID 806
Settings: for EC90: measured here: EC90 CPE inhibition; for CC50: measured here: cytotoxicity, cell viability IC50

Row | SMILES | EC50 | EC90 [µM] | CC50 [µM]
1 | CN(C)CCNc1ncnc2c1sc1nc(N3CCOCC3)c3c(c12)CC(C)(C)SC3 | > 60 µM (inactive) | > 60 | 16.3
2 | COc1ccccc1NC(=O)c1oc2ccc(C)cc2c1C | > 60 µM (inactive) | > 60 | > 60
3 | COc1cccc(C(=O)Nc2ccc(-c3nnc(-c4ccco4)o3)cc2)c1 | > 60 µM (inactive) | > 60 | > 60
4 | O=C(O)c1cccc(Nc2ncnc3c2cnn3-c2ccccc2)c1 | > 60 µM (inactive) | > 60 | > 60
5 | CCCNC(=O)c1noc2c1CCc1ccccc1-2 | > 60 µM (inactive) | > 60 | > 60
6 | Cc1ccc(-n2nc(C(=O)N3CCOCC3)cc2-c2ccc(Cl)cc2)cc1 | > 60 µM (inactive) | > 60 | 7.33
7 | CC1CCCN(C(=O)Nc2cccc(NC(=O)N3CCCC(C)C3C)c2)C1C (configuration not stated) | > 60 µM (inactive) | > 60 | > 60
8 | O=C(C1CCCCN1S(=O)(=O)c1ccccc1)N1CCN(Cc2ccccc2)CC1 (configuration not stated) | > 60 µM (inactive) | > 60 | > 60
9 | CC1(C)Cc2c(c(N3CCOCC3)nc3sc4c(NN)ncnc4c23)CS1 | > 60 µM (inactive) | > 60 | 4.49
10 | CSc1nnc(-c2ccccc2Cl)o1 | > 60 µM (inactive) | > 60 | > 60
11 | O=C(O)c1ccc(CN2C(=O)CSC2=S)cc1 | > 60 µM (inactive) | > 60 | > 60
12 | O=C1Cn2c(nc3ccccc32)N1c1ccccc1F | > 60 µM (inactive) | > 60 | > 60
13 | CC1Cc2ccccc2N1C(=O)CSc1nnc2sc3ccccc3n12 (configuration not stated) | > 60 µM (inactive) | > 60 | 10.1
14 | O=C1CC(C(=O)Nc2ccccc2)C2(CCCC2)O1 (configuration not stated) | > 60 µM (inactive) | > 60 | > 60
15 | O=C(NCC1CCCO1)C1CCCCN1S(=O)(=O)c1ccc(F)cc1 (configuration not stated) | > 60 µM (inactive) | > 60 | > 60
16 | CC1Cc2ccccc2N1C(=O)C1CCCCN1S(=O)(=O)c1ccccc1 (configuration not stated) | > 60 µM (inactive) | > 60 | > 60
17 | CC1CCN(c2ccc(C(=O)NCc3cccs3)cn2)CC1 | > 60 µM (inactive) | > 60 | > 60
18 | CCc1ccc(NC(=O)CCS(=O)(=O)c2cccc3nsnc23)cc1 | > 60 µM (inactive) | > 60 | > 60
19 | CCSc1nnc(-c2ccc(OC)cc2)o1 | > 60 µM (inactive) | > 60 | > 60
20 | Cc1nc2nc(-c3ccc(Cl)cc3)[nH]n2c(=O)c1Cc1ccccc1 | > 60 µM (inactive) | > 60 | > 60
21 | Cc1cccc(C)c1NC(=O)CCS(=O)(=O)c1cccc2nsnc12 | > 60 µM (inactive) | > 60 | > 60
22 | O=C(O)CCS(=O)(=O)c1nc(-c2cccs2)cc(C(F)(F)F)n1 | > 60 µM (inactive) | > 60 | > 60
23 | COc1ccc(S(=O)(=O)Nc2ccc(F)cc2)cc1N(C)S(=O)(=O)c1ccc(Cl)cc1 | > 60 µM (inactive) | > 60 | > 60

Row | SMILES | EC50 | EC90 [µM] | CC50 [µM]
24 | O=C(Nc1ccc(Cl)cn1)c1cc2ccccc2o1 | > 60 µM (inactive) | > 60 | > 60
25 | Cc1cc(NC(=O)CSc2nnc(-c3cccnc3)n2C2CCCCC2C)no1 (configuration not stated) | > 60 µM (inactive) | > 60 | > 60
26 | O=C(CSc1ccc2nnc(-c3cccc(F)c3)n2n1)NCc1ccco1 | > 60 µM (inactive) | > 60 | > 60
27 | Cc1ccc(CNC(=O)CCS(=O)(=O)c2cccc3nsnc23)cc1 | > 60 µM (inactive) | > 60 | > 60
28 | O=C(O)CCc1nnc2n(Cc3ccc(F)cc3)c(=O)c3ccccc3n12 | > 60 µM (inactive) | > 60 | > 60
29 | CC(C)(C)OC(=O)NCCc1nnc(SCc2c(Cl)cccc2Cl)o1 | > 60 µM (inactive) | > 60 | > 60
30 | Cc1cccc(NC(=O)CCS(=O)(=O)c2cccc3nsnc23)c1C | > 60 µM (inactive) | > 60 | > 60
31 | Cc1cccc(NC(=O)C2CC(=O)OC23CCCCC3)c1 (configuration not stated) | > 60 µM (inactive) | > 60 | > 60
32 | CCOc1ccc(Nc2ncnc3c2cnn3-c2ccccc2)cc1 | > 60 µM (inactive) | > 60 | > 60
33 | Cc1cc(=O)n2c(-c3ccccc3C)n[nH]c2n1 | > 60 µM (inactive) | > 60 | > 60
34 | Cc1ccc(S(=O)(=O)N2CCCCC2C(=O)N2CCN(C)CC2)cc1 (configuration not stated) | > 60 µM (inactive) | > 60 | > 60
35 | O=C(Cc1ccccc1)Nc1ccc(-c2nnc(-c3ccco3)o2)cc1 | > 60 µM (inactive) | > 60 | > 60
36 | Cc1cc2cc(CNC(=O)c3ccc(S(=O)(=O)N(C)C)cc3)ccc2n1C | > 60 µM (inactive) | > 60 | > 60
37 | COC(=O)CSc1nnc(-c2cccnc2)o1 | > 60 µM (inactive) | > 60 | > 60
38 | O=C(Nc1ccccn1)c1cc2ccccc2o1 | > 60 µM (inactive) | > 60 | 23.9
39 | O=C(Nc1ccc2c(c1)CCC2)c1cc2ccccc2o1 | > 60 µM (inactive) | > 60 | > 60
40 | CCOC(=O)/C=C1\SCC(=O)N1CC(=O)NC1CCCCC1 | > 60 µM (inactive) | > 60 | > 60
41 | COc1cccc(NC(=O)C2CC(=O)OC23CCOC(C)(C)C3)c1 (configuration not stated) | > 60 µM (inactive) | > 60 | > 60
42 | CCOc1ccc(-c2nnc3ccc(SCC(=O)NCc4ccco4)nn23)cc1 | > 60 µM (inactive) | > 60 | > 60
43 | C#CCSc1nnc(-c2ccc(OC)cc2)o1 | > 60 µM (inactive) | > 60 | > 60
44 | O=C(NCc1cccs1)c1ccc(N2CCCCC2)nc1 | > 60 µM (inactive) | > 60 | > 60
45 | O=C(COc1ccccc1)Nc1ccc(-c2nnc(-c3ccco3)o2)cc1 | 52 µM (inactive) | > 60 | > 60
46 | C=CCSc1nnc(-c2ccc(Cl)cc2Cl)o1 | 59.2 µM (inactive) | > 60 | > 60

Row | SMILES | EC50 | EC90 [µM] | CC50 [µM]
47 | Cc1ccc(NC(=O)C2=C(O)c3sccc3N(C)S2(=O)=O)cc1 | > 60 µM (inactive) | > 60 | > 60
48 | COc1ccc(OC)c(Nc2ncnc3c2cnn3-c2cccc(C)c2)c1 | > 60 µM (inactive) | > 60 | > 60
49 | O=C(Nc1c(-c2ccccc2)nc2sccn12)c1ccccc1 | 0.634 µM | > 60 | > 60
50 | CC(c1ccco1)N(C(=O)COc1ccccc1[N+](=O)[O-])c1ccccn1 (configuration not stated) | > 60 µM (inactive) | > 60 | > 60
51 | O=C(c1cccs1)N1CCn2c1nc1ccccc12 | > 60 µM (inactive) | > 60 | > 60
52 | O=C(Nc1cccnc1)c1cc2c(ccc3ccccc32)o1 | > 60 µM (inactive) | > 60 | > 60
53 | CCN(c1ccccc1)c1ncnc2c1cnn2-c1ccccc1 | > 60 µM (inactive) | > 60 | > 60
54 | O=C(c1cc(-c2ccc(Cl)cc2)n(-c2ccc(Cl)c(Cl)c2)n1)N1CCOCC1 | > 60 µM (inactive) | > 60 | 3.62
55 | CC1CN(C(=O)c2cnn3c(C(F)F)cc(-c4ccccc4)nc23)CC(C)O1 (configuration not stated) | > 60 µM (inactive) | > 60 | > 60
56 | COc1ccc(-c2nnc(SCC#N)o2)cc1 | > 60 µM (inactive) | > 60 | 19.7
57 | O=c1[nH]c2ccccc2n1Cc1ccc(Cl)cc1 | > 60 µM (inactive) | > 60 | > 60
58 | CCS(=O)(=O)Nc1cccc(-c2nc3cccnc3s2)c1C | > 60 µM (inactive) | > 60 | > 60
59 | CCOCCCNC(=O)C1CCCCN1S(=O)(=O)c1ccc(F)cc1 (configuration not stated) | > 60 µM (inactive) | > 60 | > 60
60 | COC(=O)c1ccc(CN(C(C)=O)c2ccccc2)o1 | > 60 µM (inactive) | > 60 | > 60
61 | O=C(CCS(=O)(=O)c1cccc2nsnc12)NC1CCCCC1 | > 60 µM (inactive) | > 60 | > 60
62 | CC(=O)Nc1cccc(NC(=O)c2cc3ccccc3o2)c1 | > 60 µM (inactive) | > 60 | > 60
63 | Cc1ccc(NC(=O)C2CC(=O)OC23CCOC(C)(C)C3)cc1 (configuration not stated) | > 60 µM (inactive) | > 60 | > 60
64 | CCOC(=O)/C=C1\SCC(=O)N1CC(=O)NC12CC3CC(CC(C3)C1)C2 | > 60 µM (inactive) | > 60 | > 60
65 | Cc1cc(C)n(S(=O)(=O)/C=C/c2ccccc2)n1 | 56.5 µM (inactive) | > 60 | > 60
66 | O=C(CN1CCN(c2ncccn2)CC1)NCc1ccccc1 | > 60 µM (inactive) | > 60 | > 60
67 | CC(C)c1ccc(C2NC(=O)NC3=C2CCc2ccccc23)cc1 (configuration not stated) | > 60 µM (inactive) | > 60 | > 60
68 | Cc1nc2scc(-c3ccco3)c2c(=O)n1/N=C/N(C)C | > 60 µM (inactive) | > 60 | > 60
69 | COc1cccc(CNC(=O)CCS(=O)(=O)c2cccc3nsnc23)c1 | > 60 µM (inactive) | > 60 | > 60
